What was measured:
Type in all cases: biochemical
Flt3 (h) = Flt3 (h) (Homo sapiens, UniProt P36888); test: Flt3 human kinase assay (glass-fiber filter); settings: test concentration of 10^−6M; for inhibition at 1 µM: read-out: C6 score (inhibition of Flt3 human)
Summary of the method: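 Human Flt3 (5-10 mU) with 50 μM peptide substrate in 8 mM MOPS pH 7.0, 0.2 mM EDTA, 10 mM Mg acetate and [γ-33P]ATP (concentration as required), 40 min at room temperature. Reaction stopped with phosphoric acid; substrate 33P incorporation counted on P30 glass-fiber filter.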

Abl (h) = Abl (h) (Homo sapiens, UniProt P00519); test: Abl human kinase assay (glass-fiber filter); settings: test concentration of 10^−6M; for inhibition at 1 µM: read-out: C1 score (inhibition of Abl human)
Sequence of Abl (h) (P00519 whole entry): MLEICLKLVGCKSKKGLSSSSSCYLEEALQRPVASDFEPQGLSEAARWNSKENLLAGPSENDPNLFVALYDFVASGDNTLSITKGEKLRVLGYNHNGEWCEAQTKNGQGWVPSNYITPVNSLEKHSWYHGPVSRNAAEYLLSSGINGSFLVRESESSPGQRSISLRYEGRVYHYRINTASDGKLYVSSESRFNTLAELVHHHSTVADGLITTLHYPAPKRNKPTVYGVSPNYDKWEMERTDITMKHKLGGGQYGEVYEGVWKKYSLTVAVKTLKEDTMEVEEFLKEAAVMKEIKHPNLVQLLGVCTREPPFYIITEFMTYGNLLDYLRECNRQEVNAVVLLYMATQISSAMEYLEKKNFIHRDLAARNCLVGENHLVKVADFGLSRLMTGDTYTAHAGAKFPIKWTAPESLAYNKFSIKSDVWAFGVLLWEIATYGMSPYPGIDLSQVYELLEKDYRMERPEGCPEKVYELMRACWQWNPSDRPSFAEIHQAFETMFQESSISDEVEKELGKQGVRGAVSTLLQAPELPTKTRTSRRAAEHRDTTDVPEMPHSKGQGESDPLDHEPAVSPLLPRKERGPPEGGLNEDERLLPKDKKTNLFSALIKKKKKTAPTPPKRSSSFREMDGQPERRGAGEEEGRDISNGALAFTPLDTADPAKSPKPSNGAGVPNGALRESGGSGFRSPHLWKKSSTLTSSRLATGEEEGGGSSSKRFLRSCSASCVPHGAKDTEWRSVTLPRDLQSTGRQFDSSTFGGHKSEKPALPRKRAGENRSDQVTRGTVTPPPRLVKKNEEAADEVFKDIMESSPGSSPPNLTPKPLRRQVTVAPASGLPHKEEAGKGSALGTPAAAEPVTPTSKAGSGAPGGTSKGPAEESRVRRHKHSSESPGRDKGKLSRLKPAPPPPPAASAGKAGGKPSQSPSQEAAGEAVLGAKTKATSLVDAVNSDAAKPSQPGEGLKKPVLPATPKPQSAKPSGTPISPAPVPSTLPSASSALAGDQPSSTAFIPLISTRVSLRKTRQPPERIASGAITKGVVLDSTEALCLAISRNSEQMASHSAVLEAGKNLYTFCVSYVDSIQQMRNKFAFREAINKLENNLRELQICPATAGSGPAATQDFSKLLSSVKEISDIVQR

Fes (h) = Fes (h) (Homo sapiens, UniProt P07332); test: Fes human kinase assay (glass-fiber filter); settings: test concentration of 10^−6M; for inhibition at 1 µM: read-out: C4 score (inhibition of Fes human)
Sequence of Fes (h) (P07332 whole entry): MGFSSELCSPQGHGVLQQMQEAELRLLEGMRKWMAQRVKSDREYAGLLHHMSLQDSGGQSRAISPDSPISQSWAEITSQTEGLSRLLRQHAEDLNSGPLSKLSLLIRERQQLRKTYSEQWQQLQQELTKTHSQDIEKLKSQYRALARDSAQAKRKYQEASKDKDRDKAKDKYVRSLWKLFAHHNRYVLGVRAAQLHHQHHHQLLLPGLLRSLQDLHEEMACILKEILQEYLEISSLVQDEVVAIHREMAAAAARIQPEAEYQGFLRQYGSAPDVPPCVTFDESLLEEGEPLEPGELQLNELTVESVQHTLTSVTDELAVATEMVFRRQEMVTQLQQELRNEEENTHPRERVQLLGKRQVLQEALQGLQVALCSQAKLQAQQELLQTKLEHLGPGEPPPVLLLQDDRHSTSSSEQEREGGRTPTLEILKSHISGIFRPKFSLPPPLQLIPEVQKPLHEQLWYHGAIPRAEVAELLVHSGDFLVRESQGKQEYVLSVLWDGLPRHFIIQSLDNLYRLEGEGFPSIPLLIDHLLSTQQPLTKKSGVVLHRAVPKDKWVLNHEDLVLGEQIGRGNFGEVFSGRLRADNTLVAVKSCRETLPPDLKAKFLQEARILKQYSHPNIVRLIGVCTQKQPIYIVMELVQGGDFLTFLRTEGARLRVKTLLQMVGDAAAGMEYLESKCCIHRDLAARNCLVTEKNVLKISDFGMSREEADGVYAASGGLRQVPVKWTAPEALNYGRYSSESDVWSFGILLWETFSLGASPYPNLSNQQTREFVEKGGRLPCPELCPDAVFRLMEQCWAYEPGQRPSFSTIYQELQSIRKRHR
Summary of the method: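 Human Fes (5–10 mU) was incubated with 0.1 mg/ml poly(Glu,Tyr) 4:1 in 8 mM MOPS pH 7.0, 0.2 mM EDTA, 10 mM Mg acetate and [γ-33P]ATP for 40 min at room temperature. The reaction was stopped with phosphoric acid, and substrate phosphorylation was quantified by filter binding and scintillation counting.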

Lyn (h) = Lyn (h) (Homo sapiens, UniProt P07948); test: Lyn human kinase assay (glass-fiber filter); settings: test concentration of 10^−6M; for inhibition at 1 µM: read-out: C10 score (inhibition of Lyn human)
Sequence of Lyn (h) (P07948 whole entry): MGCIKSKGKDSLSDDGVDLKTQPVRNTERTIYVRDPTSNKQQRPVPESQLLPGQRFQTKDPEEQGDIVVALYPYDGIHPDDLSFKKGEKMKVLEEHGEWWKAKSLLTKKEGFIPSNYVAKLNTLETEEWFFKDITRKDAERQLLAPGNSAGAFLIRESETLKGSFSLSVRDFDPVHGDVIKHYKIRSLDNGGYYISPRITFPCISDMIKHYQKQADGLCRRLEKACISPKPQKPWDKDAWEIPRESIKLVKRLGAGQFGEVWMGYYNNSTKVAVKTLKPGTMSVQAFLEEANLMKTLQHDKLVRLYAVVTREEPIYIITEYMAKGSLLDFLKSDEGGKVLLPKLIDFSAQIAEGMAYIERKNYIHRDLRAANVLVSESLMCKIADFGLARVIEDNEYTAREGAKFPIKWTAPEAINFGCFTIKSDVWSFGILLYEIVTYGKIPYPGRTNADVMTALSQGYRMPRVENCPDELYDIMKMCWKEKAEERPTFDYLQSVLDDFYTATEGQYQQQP
Summary of the method: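 Human Lyn (5-10 mU) phosphorylating poly(Glu,Tyr) 4:1 at 0.1 mg/ml with [γ-33P]ATP (concentration as required) in 50 mM Tris pH 7.5, 10 mM Mg acetate, 40 min at room temperature. Stopped with phosphoric acid; substrate-bound radioactivity counted on glass-fibre filter.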

Fms (h) = Fms (h) (Homo sapiens, UniProt P07333); test: Fms human kinase assay (glass-fiber filter); settings: test concentration of 10^−6M; for inhibition at 1 µM: read-out: C7 score (inhibition of Fms human)
Sequence of Fms (h) (P07333 20-972): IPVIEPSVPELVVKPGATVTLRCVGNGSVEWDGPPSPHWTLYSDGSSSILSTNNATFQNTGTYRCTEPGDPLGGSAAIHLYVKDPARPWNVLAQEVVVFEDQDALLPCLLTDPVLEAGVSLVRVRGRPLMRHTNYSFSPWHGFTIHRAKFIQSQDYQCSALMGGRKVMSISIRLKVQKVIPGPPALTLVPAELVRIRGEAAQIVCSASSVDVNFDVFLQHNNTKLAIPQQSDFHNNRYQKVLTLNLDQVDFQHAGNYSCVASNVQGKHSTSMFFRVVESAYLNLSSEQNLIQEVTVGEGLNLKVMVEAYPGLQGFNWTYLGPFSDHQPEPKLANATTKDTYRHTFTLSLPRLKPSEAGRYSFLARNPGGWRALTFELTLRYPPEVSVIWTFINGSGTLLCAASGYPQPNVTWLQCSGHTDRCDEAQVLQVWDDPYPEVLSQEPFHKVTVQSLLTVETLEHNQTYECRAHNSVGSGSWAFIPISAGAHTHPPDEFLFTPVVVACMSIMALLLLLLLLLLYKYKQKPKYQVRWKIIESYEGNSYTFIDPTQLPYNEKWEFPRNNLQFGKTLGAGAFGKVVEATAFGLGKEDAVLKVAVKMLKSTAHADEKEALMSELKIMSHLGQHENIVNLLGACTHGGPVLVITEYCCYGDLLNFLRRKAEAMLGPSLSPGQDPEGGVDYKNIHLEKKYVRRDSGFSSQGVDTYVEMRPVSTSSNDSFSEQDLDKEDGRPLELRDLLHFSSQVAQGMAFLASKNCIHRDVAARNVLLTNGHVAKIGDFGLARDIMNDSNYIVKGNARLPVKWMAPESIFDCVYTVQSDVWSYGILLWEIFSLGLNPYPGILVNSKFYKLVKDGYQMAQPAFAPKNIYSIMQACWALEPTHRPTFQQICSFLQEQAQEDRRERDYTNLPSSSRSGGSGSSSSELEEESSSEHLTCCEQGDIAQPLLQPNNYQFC
Summary of the method: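 Radiometric filter-binding assay: Fms (5-10 mU) with 250 μM peptide substrate and [γ-33P]ATP in 8 mM MOPS pH 7.0, 10 mM Mg acetate, 40 min at room temperature. Reaction stopped with phosphoric acid; substrate-bound 33P counted on P30 filtermat.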

cSRC (h) = cSRC (h) (Homo sapiens, UniProt P12931); test: cSRC human kinase assay (glass-fiber filter); settings: test concentration of 10^−6M; for inhibition at 1 µM: read-out: C3 score (inhibition of cSRC human)
Summary of the method: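 Radiometric assay: kinase and substrate are incubated with [33P]ATP, with the reaction started by MgATP mix. The reaction is spotted on P30 filtermat, washed in 75 mM phosphoric acid and methanol, and the bound 33P is measured by scintillation counting.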

Yes (h) = Yes (h) (Homo sapiens, UniProt P07947); test: Yes human kinase assay (glass-fiber filter); settings: test concentration of 10^−6M; for inhibition at 1 µM: read-out: C11 score (inhibition of Yes human)
Sequence of Yes (h) (P07947 whole entry): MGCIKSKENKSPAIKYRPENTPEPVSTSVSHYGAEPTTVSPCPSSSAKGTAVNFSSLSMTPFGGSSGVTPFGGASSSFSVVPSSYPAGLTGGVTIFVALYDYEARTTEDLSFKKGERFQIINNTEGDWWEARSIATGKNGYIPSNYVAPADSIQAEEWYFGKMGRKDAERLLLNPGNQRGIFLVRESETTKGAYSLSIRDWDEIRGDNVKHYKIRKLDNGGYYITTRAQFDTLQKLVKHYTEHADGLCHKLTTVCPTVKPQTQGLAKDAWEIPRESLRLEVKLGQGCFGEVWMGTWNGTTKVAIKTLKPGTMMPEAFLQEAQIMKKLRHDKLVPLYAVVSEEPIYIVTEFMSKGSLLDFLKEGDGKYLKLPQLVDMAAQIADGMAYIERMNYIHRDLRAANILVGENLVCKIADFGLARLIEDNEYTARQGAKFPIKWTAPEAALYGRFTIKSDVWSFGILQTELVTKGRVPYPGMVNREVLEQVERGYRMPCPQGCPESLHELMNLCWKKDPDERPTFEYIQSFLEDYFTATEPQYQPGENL
Summary of the method: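 Yes (h) (5-10 mU) with 0.1 mg/ml poly(Glu, Tyr) 4:1 in 8 mM MOPS pH 7.0, 0.2 mM EDTA, 10 mM MgAcetate and [γ-^33P-ATP], 40 minutes at room temperature. Stopped with phosphoric acid; substrate-bound ^33P counted on glass-fiber filter by scintillation.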

Sequence of Flt3 (h) (P36888 27-993): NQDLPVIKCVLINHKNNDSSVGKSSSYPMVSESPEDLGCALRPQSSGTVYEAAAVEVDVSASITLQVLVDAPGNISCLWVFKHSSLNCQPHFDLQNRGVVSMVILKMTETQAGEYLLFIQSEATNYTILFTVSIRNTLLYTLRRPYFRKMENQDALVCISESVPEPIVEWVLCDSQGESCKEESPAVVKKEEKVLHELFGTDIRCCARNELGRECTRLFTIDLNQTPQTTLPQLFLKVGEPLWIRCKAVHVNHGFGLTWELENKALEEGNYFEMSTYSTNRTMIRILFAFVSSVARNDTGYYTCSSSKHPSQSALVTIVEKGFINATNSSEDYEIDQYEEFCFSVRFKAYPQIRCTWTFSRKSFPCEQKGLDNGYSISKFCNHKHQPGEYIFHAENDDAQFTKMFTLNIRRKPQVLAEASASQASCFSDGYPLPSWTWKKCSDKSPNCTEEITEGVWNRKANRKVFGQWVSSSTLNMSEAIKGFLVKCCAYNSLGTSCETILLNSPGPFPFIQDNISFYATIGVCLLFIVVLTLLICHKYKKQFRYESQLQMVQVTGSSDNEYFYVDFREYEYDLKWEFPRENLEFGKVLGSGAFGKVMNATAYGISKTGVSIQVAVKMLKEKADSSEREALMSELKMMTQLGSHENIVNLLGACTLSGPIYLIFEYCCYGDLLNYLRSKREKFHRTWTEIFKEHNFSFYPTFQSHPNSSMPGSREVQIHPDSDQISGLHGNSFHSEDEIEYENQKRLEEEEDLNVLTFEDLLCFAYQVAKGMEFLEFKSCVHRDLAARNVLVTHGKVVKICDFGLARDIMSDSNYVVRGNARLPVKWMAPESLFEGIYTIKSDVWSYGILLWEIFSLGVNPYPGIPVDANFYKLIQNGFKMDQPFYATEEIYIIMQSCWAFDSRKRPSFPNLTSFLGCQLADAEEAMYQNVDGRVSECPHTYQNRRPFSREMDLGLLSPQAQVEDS

Row | Compound | C6 score (inhibition of Flt3 human) (Flt3 (h)) | C1 score (inhibition of Abl human) (Abl (h)) | C4 score (inhibition of Fes human) (Fes (h)) | C10 score (inhibition of Lyn human) (Lyn (h)) | C7 score (inhibition of Fms human) (Fms (h)) | C3 score (inhibition of cSRC human) (cSRC (h)) | C11 score (inhibition of Yes human) (Yes (h)) | inhibition at 1 µM (Flt3 (h)) [%] | inhibition at 1 µM (Abl (h)) [%] | inhibition at 1 µM (Fes (h)) [%] | inhibition at 1 µM (Lyn (h)) [%] | inhibition at 1 µM (Fms (h)) [%] | inhibition at 1 µM (cSRC (h)) [%] | inhibition at 1 µM (Yes (h)) [%]
1 | 1H,7H-2,6: 12,8-dimetheno-14H-13,19,1,3,5,7-benzodioxatetraazacycloheneicosine, 22-bromo-15,16,17,18-tetrahydro-11-methoxy- [Compound 35] | 2 (Score 2=30-60% inhibition) | 4 (Score 4=>80% inhibition) | 1 (Score 1=10-30% inhibition) | 2 (Score 2=30-60% inhibition) | 2 (Score 2=30-60% inhibition) | 1 (Score 1=10-30% inhibition) | 3 (Score 3=60-80% inhibition) |  |  |  |  |  |  | 
2 | 12,8-metheno-6,2-nitrilo-7H-13,1,5,7,16,19-benzoxapentaazacyclodocosine-3-carbonitrile, 23-chloro-1,14,15,16,17,18,19,20-octahydro-11-methoxy-19-methyl-17-oxo- [Compound 32] | 4 (Score 4=>80% inhibition) | 3 (Score 3=60-80% inhibition) | 4 (Score 4=>80% inhibition) | 4 (Score 4=>80% inhibition) | 1 (Score 1=10-30% inhibition) | 4 (Score 4=>80% inhibition) | 4 (Score 4=>80% inhibition) |  |  |  |  |  |  | 
3 | N#Cc1cnc2nc1Nc1cccc(c1)OCC(=O)NCCCOc1cccc(c1)N2 [Compound 25, 14,21-dioxa-2,4,8,17,28-pentaazatetracyclo[20.3.1.1~3,7~.1~9,13~]octacosa-1(26),3,5,7(28),9,11,13(27),22,24-nonaene-6-carbonitrile, 16-oxo-] |  |  |  |  |  |  |  | > 80 | 10 to 30 | 60 to 80 | 10 to 30 | 30 to 60 | 10 to 30 | 10 to 30
4 | N#Cc1cnc2nc1Nc1cccc(c1)OCC(=O)NCCCCOc1cccc(c1)N2 [Compound 26, 14,22-dioxa-2,4,8,17,29-pentaazatetracyclo[21.3.1.1~3,7~.1~9,13~]nonacosa-1(27),3,5,7(29),9,11,13(28),23,25-nonaene-6-carbonitrile, 16-oxo-] |  |  |  |  |  |  |  | 60 to 80 | 10 to 30 | 30 to 60 | 30 to 60 | 30 to 60 | 10 to 30 | 10 to 30
5 | N#Cc1cnc2nc1Nc1cccc(c1)OCCCNC(=O)COc1cccc(c1)N2 [Compound 28, 14,21-dioxa-2,4,8,18,28-pentaazatetracyclo[20.3.1.1~3,7~.1~9,13~]octacosa-1(26),3,5,7(28),9,11,13(27),22,24-nonaene-6-carbonitrile, 19-oxo-] |  |  |  |  |  |  |  | 60 to 80 | 10 to 30 | 10 to 30 | 10 to 30 | 30 to 60 | 30 to 60 | 60 to 80
6 | COc1ccc2c(c1)OCCCCCCOc1ccc(Cl)cc1Nc1cc(ncn1)N2 [Compound 34, 11H-6,10-metheno-5H-dibenzo[b,k][1,13,4,6,8,10]dioxatetraazacyclononadecine, 13-chloro-17,18,19,20,21,22-hexahydro-2-methoxy-] |  |  |  |  |  |  |  | 10 to 30 |  | 10 to 30 | 10 to 30 | 10 to 30 | 10 to 30 | 10 to 30
7 | COc1ccc2cc1OCCCCCCOc1ccc(Br)cc1Nc1cc(ncn1)N2 [Compound 36, 1H,7H-2,6: 12,8-dimetheno-13,20,1,3,5,7-benzodioxatetraazacyclodocosine, 23-bromo-14,15,16,17,18,19-hexahydro-11-methoxy-] | 1 (Score 1=10-30% inhibition) | 2 (Score 2=30-60% inhibition) | 1 (Score 1=10-30% inhibition) | 3 (Score 3=60-80% inhibition) | 1 (Score 1=10-30% inhibition) | 1 (Score 1=10-30% inhibition) | 1 (Score 1=10-30% inhibition) |  |  |  |  |  |  | 
8 | COc1ccc2cc1OCCCCCCCOc1ccc(Br)cc1Nc1cc(ncn1)N2 [Compound 37, 1H,7H-2,6: 12,8-dimetheno-14H-13,21,1,3,5,7-benzodioxatetraazacyclotricosine, 24-bromo-15,16,17,18,19,20-hexahydro-11-methoxy-] |  | 2 (Score 2=30-60% inhibition) | 1 (Score 1=10-30% inhibition) | 2 (Score 2=30-60% inhibition) | 1 (Score 1=10-30% inhibition) | 1 (Score 1=10-30% inhibition) | 1 (Score 1=10-30% inhibition) |  |  |  |  |  |  | 
9 | COc1ccc2cc1OCCNC(=O)CNC(=O)Cc1ccc(Cl)cc1Nc1cc(ncn1)N2 [Compound 103, 1H,7H-6,2:12,8-dimetheno-13,1,3,5,7,16,19-benzoxahexaazacyclotricosine-17,20(14H)-dione, 24-chloro-15,16,18,19,21-pentahydro-11-methoxy-] |  |  |  |  |  |  |  |  | > 80 | 60 to 80 | > 80 |  | > 80 | > 80
10 | COc1ccc2cc1OCCCNC(=O)C(C)(C)NC(=O)Cc1ccc(Cl)cc1Nc1cc(ncn1)N2 [Compound 105, 6,2:8,12-dimetheno-7H-13,1,3,5,7,17,20-benzoxahexaazacyclotetracosine-18,21-dione, 25-chloro-1,14,15,16,17,19,20,22-octahydro-11-methoxy-19,19-dimethyl-] |  |  |  |  |  |  |  |  | > 80 | 60 to 80 | > 80 | 10 to 30 | > 80 | > 80
11 | CC1(C)NC(=O)Cc2ccc(Cl)cc2Nc2cc(ncn2)Nc2ccc(OCCCN3CCOCC3)c(c2)OCCNC1=O [Compound 106, 1H,7H-6,2:8,12-dimetheno-13,1,3,5,7,16,19-benzoxahexaazacyclotricosine-17,20(14H)-dione, 24-chloro-15,16,18,19,21-pentahydro-18,18-dimethyl-11-[3-(4-morpholinyl)propoxy]-] |  |  |  |  |  |  |  | 10 to 30 | > 80 | > 80 | > 80 | 10 to 30 | > 80 | > 80
